Reference: patent US20020137767A1, “Methods for treating addictive disorders” (priority 1999, published 2002)
Where “and” joins values, the source holds several entries; their conditions need not be identical. Identical values can stand only once.

Assays:
5-HT2 receptors = details: po; male CD rats; cited from earlier work
D1-receptors = details: po pretreatment; D2-mediated atypical jerking; male SD rats; cited from earlier work
D1-like receptors = details: po; male CD rats; cited from earlier work
catalepsy = details: ip; male CD rats; cited from earlier work
[1] = test system: locomotion induced by d-amphetamine sulphate; details: male CD rats, cited from earlier work
D2-like receptors = details: po; male CD rats; cited from earlier work
[2] = test system: stereotypy induced by d-amphetamine sulphate; details: ip; d-amphetamine sulphate 10 mg/kg sc; male CD rats; cited from earlier work
[3] = test system: discriminative stimulus effects of cocaine; assay: Cocaine drug discrimination, pretreatment protocol (Example 2); type: in vivo, rhesus monkeys (Macaca mulatta)
Description: During the week, all food was delivered after the experimental session, whereas at weekends, food was delivered between 9 a.m. and noon. Water was freely available at all times.
A computer, located in a separate room, controlled the operant panels and data collection.
Discrimination Training: Discrimination training was conducted 5 days per week during daily sessions composed of multiple cycles. Each cycle consisted of a 15 min time-out period followed by a 5 min response period. During the time-out, all stimulus lights were off, and responding had no scheduled consequences. During the response period, the right and left response keys were transilluminated red or green, and monkeys could earn up to 10 food pellets by responding under a FR 30 schedule of food presentation. For one monkey, the left key was illuminated green and the right key was illuminated red; the colors of the response-keys were reversed for the other three monkeys. The center key was not illuminated at any time and responding on it had no scheduled consequences.
On training days, monkeys were given either saline or 0.40 mg/kg cocaine, i.m., 10 min before the response period. Following the administration of saline, responding on only the green key (the saline-appropriate key) produced food, whereas following administration of 0.40 mg/kg cocaine, only responding on the red key (the drug-appropriate key) produced food. Responses on the inappropriate key reset the FR requirement on the appropriate key. Sessions consisted of 1 to 5 cycles and, if cocaine was administered, this occurred only during the last cycle. Thus, training days consisted of 0 to 5 saline cycles followed by 0 or 1 cocaine cycle.
During each response period, 3 dependent variables were determined:
1) Percent injection-appropriate responding prior to delivery of the first reinforcer.
2) Percent injection-appropriate responding for the entire response period.
Monkeys meeting the following criteria during the training day immediately proceeding the test day and in at least 6 of 7 consecutive training sessions before this, were used for discrimination testing:
1) the percent injection-appropriate responding prior to delivery of the first reinforcer was ≧80% for all cycles;
2) the percent injection-appropriate responding for the entire cycle was ≧90% for all cycles;
3) Response rates during saline training cycles were >0.5 responses per second.
Discrimination Testing: Test sessions were identical to training sessions except that responding on either key produced food, and the test compound was administered using a Pretreatment Protocol. In this protocol, a cumulative dose-effect curve for cocaine (0.013-1.3 mg/kg) was determined either alone or following pretreatment with the test compound, which was administered 20 min before the first dose of cocaine.
Mean data from saline and drug cycles during the training day immediately proceeding the initial test day served as the control data for the subsequent test day.

food-maintained behavior = assay: Food-maintained responding, FR 30, food components (Example 3)
[4] = test system: cocaine self-administration; assay: Cocaine self-administration, FR 30, drug component (Example 3)
[5] = i.m. 20 min before session, cocaine 0.003 mg/kg/inj, individual monkeys, hydrobromide

COc1cc2c(cc1O)C(C1(c3ccccc3Cl)CC1)N(C)CC2 (single isomer, unassigned; (+)) [BTS 73 947, (+)-1-[1-(2-chlorophenyl)cyclopropyl]-7-hydroxy-6-methoxy-2-methyl-1,2,3,4-tetrahydroisoquinoline]
protection of 5-HT2 receptors from EEDQ inactivation (5-HT2 receptors): no effect | ED15 (dose induced 15 jerks in the 15 min test period) (D1-receptors): 3.4 mg/kg | ED50 for protection of D1-like receptors from EEDQ inactivation (D1-like receptors): 1 mg/kg | ED50 to induce catalepsy (catalepsy): 25.4 mg/kg | ratio of ED50 to induce catalepsy to ED50 to inhibit amphetamine locomotion (catalepsy): 36 | duration of action ([1]; behavioral models): > 6 h | time of peak effect post-dose ([1]; behavioral models): 4 h | ED50 to inhibit locomotion induced by d-amphetamine sulphate ([1]; ip, d-amphetamine sulphate 2.5 mg/kg sc): 0.7 mg/kg | fold greater potency against limbic DA function (locomotion vs stereotypy) ([1]; ratio of stereotypy and locomotion ED50, ip): ~3.5 fold | protection of D2-like receptors from EEDQ inactivation (D2-like receptors): no effect | ED50 to inhibit stereotypy induced by d-amphetamine sulphate [2]: 2.4 mg/kg

Br.COc1cc2c(cc1O)C(C1(c3ccccc3Cl)CC1)N(C)CC2 (single isomer, unassigned; (+)) [test compound, (+)-1-[1-(2-chlorophenyl)cyclopropyl]-7-hydroxy-6-methoxy-2-methyl-1,2,3,4tetrahydroisoquinoline hydrobromide]
effect on responding (response rate) during first one to three cycles ([3]; 0.01 and 0.032 mg/kg, in combination with 0.013 and 0.04 mg/kg cocaine): eliminated responding | fold increase in the cocaine ED50 value ([3]; pretreatment 0.01 mg/kg, monkey 2): 3 fold | effect on the cocaine discrimination dose-effect curve ([3]; pretreatment 0.01 mg/kg, the other three monkeys (1, 3, 4)): no effect | effect on the cocaine discrimination dose-effect curve ([3]; pretreatment 0.032 mg/kg, all four monkeys): rightward shifts | ED50 for cocaine after pretreatment with test compound 0.01 mg/kg ([3]; test compound 0.01 mg/kg 20 min before first cocaine dose, individual monkeys 1-4, hydrobromide): 0.24 mg/kg and 0.23 mg/kg and 0.72 mg/kg | ED50 for cocaine after pretreatment with test compound 0.032 mg/kg ([3]; test compound 0.032 mg/kg 20 min before first cocaine dose, individual monkeys 1-4, hydrobromide): 0.72 mg/kg and 0.071 mg/kg | ED50 (food-maintained behavior; Macaca mulatta, read-out: ED50 for decreasing response rates maintained by food (Food #1, preceded the drug component), i.m. 20 min before session, cocaine 0.003 mg/kg/inj, individual monkeys): 0.003 mg/kg | ED50 for decreasing response rates maintained by food (Food #1, preceded the drug component) (food-maintained behavior; [5]): 0.002 mg/kg | ED50 for decreasing response rates maintained by food (Food #2, followed the drug component) (food-maintained behavior; [5]): 0.011 mg/kg and 0.006 mg/kg and 0.002 mg/kg | effect on food-maintained response rates in the first component of food availability (food-maintained behavior; pretreatment 0.01 mg/kg): appreciably decreased | ED50 for decreasing response rates maintained by cocaine (Drug component) [4, 5]: 0.002 mg/kg and 0.001 mg/kg and 0.004 mg/kg | rightward shift of the peak of the dose-effect function for cocaine self-administration ([4]; lower pretreatment dose (0.003 mg/kg), on average): 3 fold | surmountability of treatment effects by increased self-administration of higher unit doses of cocaine ([4]; pretreatment 0.003 and 0.01 mg/kg, any monkey): not surmounted

COC(=O)[C@H]1[C@@H](OC(=O)c2ccccc2)C[C@@H]2CC[C@H]1N2C.Cl [Cocaine, Cocaine hydrochloride, reference compound]
substitution for training stimulus (cocaine-appropriate responding) ([3]; cocaine alone 0.4 mg/kg (training dose), all monkeys): Complete substitution | effect on response rates ([3]; cocaine alone 1.3 mg/kg): decreased response rates | ED50 for cocaine (50% cocaine-appropriate responding), Cocaine Alone ([3]; cumulative cocaine 0.013-1.3 mg/kg i.m., no pretreatment, individual monkeys 1-4): 0.23 mg/kg
